From patent US20100048713A1, “COMPOUNDS ACTING ON THE SEROTONIN TRANSPORTER” (Aarhus Universitet, priority 2006, published 2010)
Entries after “also recorded” stand apart in the source; their conditions may differ. Blank lines part the entries; values can stand above or below the molecule they belong to.

Experiments:
[1] = tested on: dorsal raphe 5-HT neurons; assay type: in vivo
Description: The experiments were carried out in male Sprague-Dawley rats weighing 250-300 g at the day of the recording. Prior to the acute study, a dose-response curve on the suppressive effect on neuronal firing of fluoxetine was constructed. Subsequently, in the acute study, 5 mg/kg 1-NSC was injected i.v. followed by administration of 1 mg/kg fluoxetine. In the chronic administration experiments, groups of rats were treated with fluoxetine (10 mg/kg/day), 1-NSC (2×10 mg/kg/day) or in combination for 7 days delivered subcutaneously (s.c.) with osmotic minipumps. Control rats received a minipump containing vehicle (NaCl 0.9%). The rats were tested with the minipumps in place.
Extracellular recordings were performed with single-barreled glass micropipettes preloaded with fiberglass filaments in order to facilitate filling. The tip was broken back to 2-4 μm and filled with a 2 M NaCl solution saturated with Pontamine Sky Blue to stain the location. The rats were placed in a stereotaxic frame and a burr hole was drilled on the midline, 1 mm anterior to lambda. Presumed DRN 5-HT neurons were encountered over a distance of 1 mm starting immediately below the ventral border of the Sylvius aqueduct. These neurons were identified using the criteria of Aghajanian (1978): a slow (0.5-2.5 Hz) and regular firing rate and long-duration (0.8-1.2 ms) positive action potentials; they were also verified to be located in DRN. WAY 100635 (N-{2-[4(2-methoxyphenyl)-1-piperazinyl]ethyl}-N-(2-pyridinyl)cyclohexanecarboxamide trihydrochloride; 50-100 μg/kg, i.v.) was used to reverse the suppressant effect of fluoxetine or fluoxetine/1-NSC on the firing activity of DRN 5-HT neurons. […] For the chronic studies, in order to determine the possible changes of the spontaneous firing activity of dorsal raphe 5-HT neurons, four to five electrode descents were carried out through this nucleus, in rats with minipumps in place.
The allosteric ligand 1-NSC was tested in vivo in Sprague-Dawley rats for the ability to interfere with fluoxetine-induced suppression of the neuronal firing rate (Assay 6).

[2] = biological target: T1, hSERT (Homo sapiens, UniProt P31645); test: Dissociation assay with [3H]-citalopram and hSERT membrane preparations; assay type: binding; conditions: for Stabilises dissociation of [3H]-citalopram: own effect (10 uM fluoxetine) (concentration which affects dissociation): 10 uM fluoxetine in dissociation buffer; for Stabilises dissociation of [3H]-citalopram: 15 uM citalopram (concentration which affects dissociation): 15 uM citalopram in dissociation buffer
T1 construct: expressed in transfected cells; the general 96-well protocol names Cos-1
Description: (§1) 17.5 μl Fugene-6 (Roche Molecular Biochemicals) were mixed with 280 μl Dulbecco's modified Eagle's medium, and incubated at room temperature for 5 minutes. 10 μg of plasmid were added and the mixture was further incubated at least 15 minutes. […] Prior to harvesting the dish was rinsed in PBS. Cells were harvested with a cell scraper in buffer 1 (50 mM Tris-base, 150 mM NaCl, 20 mM EDTA, pH 7.4). After centrifugation (3000 g at 4° C. for 10 mins), cells were suspended and homogenized with an IKA Ultra-Turrax from Rose Scientific Ltd (Edmonton, Alberta, Canada) for 20 s in buffer 1. Membranes were pelleted by ultracentrifugation (12 000 g at 4° C. for 15 min) and homogenization was repeated in buffer 1. Finally, after ultracentrifugation (12000 g, 4° C., 15 min) membranes were resuspended in 1 ml buffer 3 (50 mM Tris-base, 120 mM NaCl, 5 mM KCl, pH 7.4) and stored at −80° C.
Dissociation assay with [^3H]-citalopram and membrane preparations SERT-[^3H]-citalopram complex was formed by incubating hSERT membrane preparation and radioligand in buffer 3 during a 60 min incubation at 4° C. Radioligand was present at a concentration 10 times the Kd value. The time kinetic of dissociation was followed by adding 10 μL complex solution to 250 μL buffer 3 in 96-well plates and incubating subsequently for increasing time intervals at RT. Reactions were terminated by filtration through GF/C glass-fibre filters (Unifilter, Perkin Elmer Life Sciences), preincubated with 40 μl 0.5 % polyethyleneimine, using a Pachard Bell cell harvester, and subsequently washed three times with water. Filters were soaked in 40 μl Microscint 20 scintillation liquid (Pachard Bell). Bound radioactivity was determined by direct counting of plates using a Packard Bell microplate scintillation counter. Dissociation curves were obtained by plotting residual binding vs. time of dissociation.
The interaction of the allosteric ligand with the allosteric mechanism used by citalopram was studied by combining allosteric ligand and citalopram in the dissociation buffer. The interaction of the allosteric ligand with the radioligand was studied by combining the allosteric ligand and fluoxetine in the dissociation buffer.
(§2) Dissociation of [^3H]-citalopram from the serotonin transporter has been studied using membrane preparations from SERT-expressing cells. The off-rates of the radioligand were measured in the presence/absence of a fixed concentration of allosteric ligand. […] Additionally, the allosteric impact on the radioligand in the absence of citalopram, was studied by combining 10 μM fluoxetine and 200/2000 μM allosteric ligand in the dissociation buffer. […] The cells were incubated for 10 minutes before the assay was terminated by washing in PBSCM.

[3] = biological target: T1, hSERT; test: 5-HT uptake assay, 10 min incubation without preincubation; assay type: cell-based; conditions: 75 nM [3H]-5-HT, no preincubation
Description: Cells were grown for 48 h to confluency, and prior to uptake assay, plates were washed in PBSCM. All washing steps were carried out in an automatic plate washer. […] The assay was terminated by washing with PBSCM. The amount of accumulated [^3H]-5HT was determined by solubilizing cells in scintillant (MicroScint 20) with direct counting of plates in a Packard TopCounter. Data was analyzed by GraphPad software.
as §2

[4] = biological target: T1, hSERT; test: Binding of [3H]-citalopram to membrane preparations; conditions: 35 nM [3H]-citalopram, 60 min RT
Description: as §1
A dilution series of the allosteric ligand was prepared in buffer 3 containing 70 nM [^3H]-citalopram. […] The mixture was incubated under moderate agitation at RT for 60 min. Reactions were terminated by filtration through GF/C glass-fibre filters (Unifilter, Perkin Elmer Life Sciences), preincubated with 40 μl 0.5 % polyethyleneimine, using a Pachard Bell cell harvester, and subsequently washed three times with water. Filters were soaked in 40 μl Microscint 20 scintillation liquid (Pachard Bell). Bound radioactivity was determined by direct counting of plates using a Packard Bell microplate scintillation counter. Displacing curves were obtained by plotting residual binding vs. log concentration of the displacing ligand.

[5] = biological target: T1, hSERT; test: 5-HT uptake assay with preincubation (whole cells); assay type: cell-based; conditions: whole cell assay with preincubation (title 45 min, text 60 min), 75 nM [3H]-5-HT, 10 min
Description: 7 μl Fugene-6 was mixed with 112 μl Dulbecco's modified Eagle's medium, and incubated at room temperature for 5 minutes. 4 μg of plasmid were added and the mixture was further incubated at least 15 minutes. Cos-1 cells were trypsinized and suspended in growth media, and the plasmid/Fugene-6 mixture was added followed by dispersion into a 96-well plate.
The 96-well plate was washed with PBSCM to remove DMEM prior to the assay. 50 μl PBSCM containing increasing concentrations of allosteric ligand were added to each well, and incubated for 60 min at room temperature under moderate agitation. […] The plate was subsequently incubated for 10 min at room temperature. The assay was terminated by washing once with PBSCM. The amount of accumulated [^3H]-5-HT was determined by solubilizing cells in scintillant (MicroScint 20) with direct counting of plates in a Packard TopCounter. Data was analyzed by GraphPad software.
We tested the allosteric ligands for their ability to inhibit/activate 5-HT-uptake in the whole-cell assay after 60 minutes preincubation.

[6] = biological target: T1, hSERT; test: Binding assay on whole cells transfected with hSERT ([3H]-citalopram displacement); conditions: whole cell assay, 35 nM [3H]-citalopram, 60 min room temperature; table title: 45 min preincubation
Description: The pcDNA3 plasmid vector containing the hSERT gene was used for transfection (see FIG. 6).
The 96-well plate was washed with PBSCM to remove DMEM prior to the assay. […] The plate was subsequently incubated for 60 min at room temperature. The assay was terminated by washing once with PBSCM. The amount of accumulated [^3H]-citalopram was determined by solubilizing cells in scintillant (MicroScint 20) with direct counting of plates in a Packard TopCounter. Data was analyzed by GraphPad software.

[7] = biological target: T2, hDAT (Homo sapiens, UniProt Q01959); test: Binding of [125I]-RTI-55 in whole cell assay, cells transfected with human DAT; conditions: displacement of [125I]-RTI-55
T2 construct: expressed in transfected cells
Description: A binding assay as described in example 2, wherein the cocaine analogue [^125I] RTI-55 was used to test for the compounds of the present invention to act as displacers of cocain.
(§3) Because RTI-55 (and cocaine) acts as inhibitors of SERT and DAT, we also performed the binding assay in cells transfected with human DAT.

[8] = biological target: T1, hSERT; test: Binding of [125I]-RTI-55 in whole cell assay, hSERT; conditions: displacement of [125I]-RTI-55
Description: RTI-55 was used to test for the compounds of the present invention to act as displacers of cocain.
as §3

T1 sequence (P31645 whole entry): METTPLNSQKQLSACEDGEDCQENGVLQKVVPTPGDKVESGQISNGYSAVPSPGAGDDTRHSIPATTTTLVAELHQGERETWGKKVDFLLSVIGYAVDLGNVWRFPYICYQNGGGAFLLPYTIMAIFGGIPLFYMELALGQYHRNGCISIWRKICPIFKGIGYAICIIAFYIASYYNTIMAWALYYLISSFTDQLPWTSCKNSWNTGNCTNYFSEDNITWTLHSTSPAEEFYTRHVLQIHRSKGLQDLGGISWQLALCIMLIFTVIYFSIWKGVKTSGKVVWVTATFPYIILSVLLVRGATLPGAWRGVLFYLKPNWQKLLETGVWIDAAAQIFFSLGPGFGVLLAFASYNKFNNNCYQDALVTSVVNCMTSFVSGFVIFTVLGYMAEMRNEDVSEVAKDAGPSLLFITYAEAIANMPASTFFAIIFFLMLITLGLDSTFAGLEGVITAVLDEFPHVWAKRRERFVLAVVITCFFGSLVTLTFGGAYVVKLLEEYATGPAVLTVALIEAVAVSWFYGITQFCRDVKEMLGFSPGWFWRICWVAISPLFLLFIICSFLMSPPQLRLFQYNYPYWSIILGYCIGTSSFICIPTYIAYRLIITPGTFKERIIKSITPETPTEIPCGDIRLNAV
T2 sequence (Q01959 whole entry): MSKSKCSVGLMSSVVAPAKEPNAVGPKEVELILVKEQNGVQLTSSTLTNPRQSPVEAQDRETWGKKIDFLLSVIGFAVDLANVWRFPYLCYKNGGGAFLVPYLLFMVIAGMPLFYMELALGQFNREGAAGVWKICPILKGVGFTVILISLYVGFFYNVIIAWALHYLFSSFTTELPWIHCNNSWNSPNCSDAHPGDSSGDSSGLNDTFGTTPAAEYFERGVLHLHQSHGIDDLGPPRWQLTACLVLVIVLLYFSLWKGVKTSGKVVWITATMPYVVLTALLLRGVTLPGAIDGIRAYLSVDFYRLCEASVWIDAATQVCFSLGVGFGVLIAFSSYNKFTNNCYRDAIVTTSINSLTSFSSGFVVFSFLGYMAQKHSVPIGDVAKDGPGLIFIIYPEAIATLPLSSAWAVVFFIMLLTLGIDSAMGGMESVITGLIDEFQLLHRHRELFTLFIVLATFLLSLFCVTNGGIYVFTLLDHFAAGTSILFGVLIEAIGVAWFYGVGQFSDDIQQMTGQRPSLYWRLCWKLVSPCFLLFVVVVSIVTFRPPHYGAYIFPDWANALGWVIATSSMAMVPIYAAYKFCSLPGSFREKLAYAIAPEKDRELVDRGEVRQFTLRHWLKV

SMILES: COc1ccccc1N1CCN(CCN(C(=O)C2CCCCC2)c2ccccn2)CC1.Cl.Cl.Cl [Way 100,635, N-{2-[4(2-methoxyphenyl)-1-piperazinyl]ethyl}-N-(2-pyridinyl)cyclohexanecarboxamide trihydrochloride, reference compound]
- reversal of suppression of the neuronal firing rate ([1]; 50-100 ug/kg i.v. after fluoxetine or fluoxetine/1-NSC, trihydrochloride): reverses the suppressive effect of fluoxetine on the neuronal firing rate; also recorded: completely restored the neuronal firing rate

SMILES: CNCCC(Oc1ccc(C(F)(F)F)cc1)c1ccccc1 (stereo not drawn) [fluoxetine, reference compound]
- recovery of the firing rates ([1]; chronic treatment 7 days s.c. minipumps, rats (FIG. 2)): 30%

SMILES: O=S(=O)(Cl)c1cccc2ccccc12 [1-NSC, 1-naphthalenesulfonyl chloride]
- effect of 1-NSC alone on neuronal firing rate ([1]; acute injection, restored within minutes (FIG. 1)): small decrease in neuronal firing rate
- effect on fluoxetine-induced suppression of the neuronal firing rate ([1]; acute study, 5 mg/kg 1-NSC then 1 mg/kg fluoxetine, DRN (FIG. 1)): acutely enhances the fluoxetine-induced suppression of the neuronal firing rate; also recorded: potentiation of the fluoxetine-induced suppression of the neuronal firing rate
- recovery of dorsal raphe 5-HT neuronal firing of fluoxetine treated rats (FIG. 2) ([1]; chronic treatment, 7 day period): potentiated
- toxic side effects ([1]; doses used in the experiments of FIGS. 1 and 2, rats): no apparent toxic side effects
- Stabilises dissociation of [3H]-citalopram: own effect (10 uM fluoxetine) (concentration which affects dissociation) [2]: 2000 µM
- Stabilises dissociation of [3H]-citalopram: 15 uM citalopram (concentration which affects dissociation) [2]: 2000 µM
- 5-HT uptake (effect) [3]: Increase
- Binding of [3H]-citalopram (Bmax) [4]: Displace

- Stabilises dissociation of [3H]-citalopram: own effect (10 uM fluoxetine) (concentration which affects dissociation) [2]: 2000 µM
- Stabilises dissociation of [3H]-citalopram: 15 uM citalopram (concentration which affects dissociation) [2]: 2000 µM
- IC50 [5]: 1820 µM
- EC50 [6]: 1260 µM
- EC50 [7]: 1280 µM
- 5-HT uptake (effect) [3]: No effect
- Binding of [3H]-citalopram (Bmax) [4]: No effect
- EC50 [8]: 2310 µM
SMILES: Cc1ccc(S(=O)(=O)n2ccnc2)cc1 [TS14]
